Laboratory results taken from article PMC7778606, “Development of the phenylpyrazolo[3,4-d]pyrimidine-based, insulin-like growth factor receptor/Src/AXL-targeting small molecule kinase inhibitor” (Theranostics, 2021).

Assays:
[1] = biological target: T1, PIK3CA (Homo sapiens, UniProt P42336); test: KINOMEscan competition binding assay; details: LL6 at 10 μM; read-out: Percent Control
T1 construct: purchased DiscoverX KINOMEscan
Protocol: (§1) Kd values were obtained by KINOMEscan from DiscoverX (San Diego, CA, USA). To briefly summarize, Kd was measured by a competition binding assay that quantitatively measures the ability of a compound to compete with an immobilized ligand. […] Dose response curves of 11 points are obtained for Kd values, which are measured in duplicate. See more details in the cited references [39]-[42] and see also at www.discoverx.com.

[2] = biological target: T2, CDK9 (Homo sapiens, UniProt P50750); test: KINOMEscan competition binding assay; details: LL6 at 10 μM; read-out: Percent Control
T2 construct: purchased DiscoverX KINOMEscan
Protocol: as §1

[3] = biological target: T3, MARK3 (Homo sapiens, UniProt P27448); test: KINOMEscan competition binding assay; details: LL6 at 10 μM; read-out: Percent Control
T3 construct: purchased DiscoverX KINOMEscan
Protocol: as §1

[4] = biological target: T4, DYRK1B (Homo sapiens, UniProt Q9Y463); test: KINOMEscan competition binding assay; details: LL6 at 10 μM; read-out: Percent Control
T4 construct: purchased DiscoverX KINOMEscan
Protocol: as §1

[5] = biological target: T5, TGFBR1 (Homo sapiens, UniProt P36897); test: KINOMEscan competition binding assay; details: LL6 at 10 μM; read-out: Percent Control
T5 construct: purchased DiscoverX KINOMEscan
Protocol: as §1

[6] = biological target: T6, PAK1 (Homo sapiens, UniProt Q13153); test: KINOMEscan competition binding assay; details: LL6 at 10 μM; read-out: Percent Control
T6 construct: purchased DiscoverX KINOMEscan
Protocol: as §1

[7] = biological target: T7, PIM3 (Homo sapiens, UniProt Q86V86); test: KINOMEscan competition binding assay; details: LL6 at 10 μM; read-out: Percent Control
T7 construct: purchased DiscoverX KINOMEscan
Protocol: as §1

[8] = biological target: T8, MET (Homo sapiens, UniProt P08581); test: KINOMEscan competition binding assay; details: LL6 at 10 μM; read-out: Percent Control
T8 construct: purchased DiscoverX KINOMEscan
Protocol: as §1

[9] = biological target: T9, MAP3K4 (Homo sapiens, UniProt Q9Y6R4); test: KINOMEscan competition binding assay; details: LL6 at 10 μM; read-out: Percent Control
T9 construct: purchased DiscoverX KINOMEscan
Protocol: as §1

[10] = biological target: T10, BRAF (Homo sapiens, UniProt P15056); test: KINOMEscan competition binding assay; details: LL6 at 10 μM; read-out: Percent Control
T10 construct: purchased DiscoverX KINOMEscan
Protocol: as §1

[11] = biological target: T11, PDPK1 (Homo sapiens, UniProt O15530); test: KINOMEscan competition binding assay; details: LL6 at 10 μM; read-out: Percent Control
T11 construct: purchased DiscoverX KINOMEscan
Protocol: as §1

[12] = biological target: T12, ULK2 (Homo sapiens, UniProt Q8IYT8); test: KINOMEscan competition binding assay; details: LL6 at 10 μM; read-out: Percent Control
T12 construct: purchased DiscoverX KINOMEscan
Protocol: as §1

[13] = biological target: T13, CHEK1 (Homo sapiens, UniProt O14757); test: KINOMEscan competition binding assay; details: LL6 at 10 μM; read-out: Percent Control
T13 construct: purchased DiscoverX KINOMEscan
T13 sequence (O14757 whole entry): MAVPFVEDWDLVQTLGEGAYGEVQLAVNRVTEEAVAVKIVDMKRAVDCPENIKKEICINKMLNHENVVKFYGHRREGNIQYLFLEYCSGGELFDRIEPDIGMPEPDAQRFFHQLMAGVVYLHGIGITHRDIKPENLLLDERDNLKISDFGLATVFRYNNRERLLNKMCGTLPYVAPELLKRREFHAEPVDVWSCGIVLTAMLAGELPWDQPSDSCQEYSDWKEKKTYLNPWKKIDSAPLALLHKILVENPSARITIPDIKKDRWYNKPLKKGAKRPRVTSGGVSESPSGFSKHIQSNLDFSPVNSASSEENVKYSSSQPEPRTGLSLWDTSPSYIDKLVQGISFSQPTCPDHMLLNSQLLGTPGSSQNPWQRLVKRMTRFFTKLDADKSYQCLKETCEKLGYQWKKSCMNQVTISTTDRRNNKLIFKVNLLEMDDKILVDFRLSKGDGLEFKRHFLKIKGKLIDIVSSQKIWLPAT
Protocol: as §1

[14] = biological target: T14, TIE2 (Homo sapiens, UniProt Q02763); test: KINOMEscan competition binding assay; details: LL6 at 10 μM; read-out: Percent Control
T14 construct: purchased DiscoverX KINOMEscan
Protocol: as §1

[15] = biological target: T15, EPHA2 (Homo sapiens, UniProt P29317); test: KINOMEscan competition binding assay; details: LL6 at 10 μM; read-out: Percent Control
T15 construct: purchased DiscoverX KINOMEscan
Protocol: as §1

[16] = biological target: T16, IR (Homo sapiens, UniProt P06213); test: KINOMEscan competition binding assay
T16 construct: purchased DiscoverX (KINOMEscan service)
T16 sequence (P06213 28-1382): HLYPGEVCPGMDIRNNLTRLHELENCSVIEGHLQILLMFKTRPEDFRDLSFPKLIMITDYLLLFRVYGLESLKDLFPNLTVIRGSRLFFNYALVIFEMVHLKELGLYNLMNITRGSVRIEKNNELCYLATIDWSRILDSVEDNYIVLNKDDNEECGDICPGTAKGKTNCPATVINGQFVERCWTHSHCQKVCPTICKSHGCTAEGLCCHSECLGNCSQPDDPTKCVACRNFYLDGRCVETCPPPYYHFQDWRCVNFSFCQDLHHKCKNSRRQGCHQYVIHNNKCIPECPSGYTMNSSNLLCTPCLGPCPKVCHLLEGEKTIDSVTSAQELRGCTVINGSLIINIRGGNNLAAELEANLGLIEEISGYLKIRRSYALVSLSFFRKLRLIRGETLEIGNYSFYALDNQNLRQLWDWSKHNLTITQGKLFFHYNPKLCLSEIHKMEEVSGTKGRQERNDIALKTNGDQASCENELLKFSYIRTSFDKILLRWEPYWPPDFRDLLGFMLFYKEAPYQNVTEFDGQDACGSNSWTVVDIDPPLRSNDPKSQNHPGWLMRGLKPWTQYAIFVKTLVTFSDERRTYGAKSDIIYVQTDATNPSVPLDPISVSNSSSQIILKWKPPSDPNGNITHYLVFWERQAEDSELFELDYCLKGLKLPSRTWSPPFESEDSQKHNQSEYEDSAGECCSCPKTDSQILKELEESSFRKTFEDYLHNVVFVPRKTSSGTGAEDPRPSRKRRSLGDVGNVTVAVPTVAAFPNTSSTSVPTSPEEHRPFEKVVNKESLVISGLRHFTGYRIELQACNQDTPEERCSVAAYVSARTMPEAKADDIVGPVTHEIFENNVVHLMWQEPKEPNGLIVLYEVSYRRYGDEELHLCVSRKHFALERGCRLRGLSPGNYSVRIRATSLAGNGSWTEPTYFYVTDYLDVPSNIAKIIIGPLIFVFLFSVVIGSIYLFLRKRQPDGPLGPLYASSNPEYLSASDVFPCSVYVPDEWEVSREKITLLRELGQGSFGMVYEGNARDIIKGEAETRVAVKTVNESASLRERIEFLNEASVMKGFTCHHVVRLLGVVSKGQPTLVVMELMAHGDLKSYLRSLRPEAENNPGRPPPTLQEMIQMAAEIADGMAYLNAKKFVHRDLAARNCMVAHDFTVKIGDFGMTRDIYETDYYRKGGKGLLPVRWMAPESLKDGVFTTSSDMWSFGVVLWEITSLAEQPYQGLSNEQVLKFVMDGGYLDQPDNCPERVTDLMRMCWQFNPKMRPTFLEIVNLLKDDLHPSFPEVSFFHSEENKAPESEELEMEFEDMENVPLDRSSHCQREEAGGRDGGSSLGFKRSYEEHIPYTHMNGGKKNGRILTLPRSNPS
Protocol: as §1

[17] = biological target: T17, JNK3 (Homo sapiens, UniProt P53779); test: KINOMEscan competition binding assay; details: LL6 at 10 μM; read-out: Percent Control
T17 construct: purchased DiscoverX KINOMEscan
Protocol: as §1

[18] = biological target: T18, MEK2 (Homo sapiens, UniProt P36507); test: KINOMEscan competition binding assay; details: LL6 at 10 μM; read-out: Percent Control
T18 construct: purchased DiscoverX KINOMEscan
Protocol: as §1

[19] = biological target: T19, PAK4 (Homo sapiens, UniProt O96013); test: KINOMEscan competition binding assay; details: LL6 at 10 μM; read-out: Percent Control
T19 construct: purchased DiscoverX KINOMEscan
Protocol: as §1

[20] = biological target: T20, GSK3B (Homo sapiens, UniProt P49841); test: KINOMEscan competition binding assay; details: LL6 at 10 μM; read-out: Percent Control
T20 construct: purchased DiscoverX KINOMEscan
Protocol: as §1

[21] = biological target: T21, PAK2 (Homo sapiens, UniProt Q13177); test: KINOMEscan competition binding assay; details: LL6 at 10 μM; read-out: Percent Control
T21 construct: purchased DiscoverX KINOMEscan
Protocol: as §1

[22] = biological target: T22, MLK1 (Homo sapiens, UniProt P80192); test: KINOMEscan competition binding assay; details: LL6 at 10 μM; read-out: Percent Control
T22 construct: purchased DiscoverX KINOMEscan
Protocol: as §1

[23] = biological target: T23, LKB1 (Homo sapiens, UniProt Q15831); test: KINOMEscan competition binding assay; details: LL6 at 10 μM; read-out: Percent Control
T23 construct: purchased DiscoverX KINOMEscan
Protocol: as §1

[24] = biological target: T24, BMPR2 (Homo sapiens, UniProt Q13873); test: KINOMEscan competition binding assay; details: LL6 at 10 μM; read-out: Percent Control
T24 construct: purchased DiscoverX KINOMEscan
T24 sequence (Q13873 27-1038): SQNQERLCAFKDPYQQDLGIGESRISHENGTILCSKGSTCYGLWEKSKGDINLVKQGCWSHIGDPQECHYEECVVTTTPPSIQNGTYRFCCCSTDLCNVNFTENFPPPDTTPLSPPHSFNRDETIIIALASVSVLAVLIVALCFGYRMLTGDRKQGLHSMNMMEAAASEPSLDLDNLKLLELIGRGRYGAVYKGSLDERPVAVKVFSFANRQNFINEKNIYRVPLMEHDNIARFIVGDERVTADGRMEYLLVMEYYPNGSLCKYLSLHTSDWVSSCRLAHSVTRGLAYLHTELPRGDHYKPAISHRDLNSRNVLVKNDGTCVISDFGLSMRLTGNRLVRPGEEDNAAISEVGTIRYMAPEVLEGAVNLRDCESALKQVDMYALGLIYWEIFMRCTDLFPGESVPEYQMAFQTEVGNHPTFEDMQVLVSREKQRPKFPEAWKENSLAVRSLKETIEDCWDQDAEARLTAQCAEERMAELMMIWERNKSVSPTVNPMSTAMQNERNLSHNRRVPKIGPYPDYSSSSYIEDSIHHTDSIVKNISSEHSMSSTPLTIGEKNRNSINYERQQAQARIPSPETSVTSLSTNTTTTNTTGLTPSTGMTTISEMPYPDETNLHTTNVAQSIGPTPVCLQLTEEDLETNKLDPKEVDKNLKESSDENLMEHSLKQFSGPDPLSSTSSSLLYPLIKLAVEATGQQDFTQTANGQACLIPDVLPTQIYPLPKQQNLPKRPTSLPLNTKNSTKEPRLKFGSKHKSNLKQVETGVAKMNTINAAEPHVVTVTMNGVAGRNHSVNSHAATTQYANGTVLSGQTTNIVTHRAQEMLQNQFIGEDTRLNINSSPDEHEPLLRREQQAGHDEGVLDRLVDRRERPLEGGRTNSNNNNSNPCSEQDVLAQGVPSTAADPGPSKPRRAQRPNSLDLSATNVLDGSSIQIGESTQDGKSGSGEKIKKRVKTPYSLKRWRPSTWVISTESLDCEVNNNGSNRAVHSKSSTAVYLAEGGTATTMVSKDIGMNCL
Protocol: as §1

[25] = biological target: T25, FLT3 (Homo sapiens, UniProt P36888); test: KINOMEscan competition binding assay; details: LL6 at 10 μM; read-out: Percent Control
T25 construct: purchased DiscoverX KINOMEscan
Protocol: as §1

[26] = biological target: T26, MKNK2 (Homo sapiens, UniProt Q9HBH9); test: KINOMEscan competition binding assay; details: LL6 at 10 μM; read-out: Percent Control
T26 construct: purchased DiscoverX KINOMEscan
Protocol: as §1

[27] = biological target: T27, PIK3C2B (Homo sapiens, UniProt O00750); test: KINOMEscan competition binding assay; details: LL6 at 10 μM; read-out: Percent Control
T27 construct: purchased DiscoverX KINOMEscan
Protocol: as §1

[28] = biological target: T28, ROCK2 (Homo sapiens, UniProt O75116); test: KINOMEscan competition binding assay; details: LL6 at 10 μM; read-out: Percent Control
T28 construct: purchased DiscoverX KINOMEscan
Protocol: as §1

[29] = biological target: T29, FAK (Homo sapiens, UniProt Q05397); test: KINOMEscan competition binding assay; details: LL6 at 10 μM; read-out: Percent Control
T29 construct: purchased DiscoverX KINOMEscan
T29 sequence (Q05397 whole entry): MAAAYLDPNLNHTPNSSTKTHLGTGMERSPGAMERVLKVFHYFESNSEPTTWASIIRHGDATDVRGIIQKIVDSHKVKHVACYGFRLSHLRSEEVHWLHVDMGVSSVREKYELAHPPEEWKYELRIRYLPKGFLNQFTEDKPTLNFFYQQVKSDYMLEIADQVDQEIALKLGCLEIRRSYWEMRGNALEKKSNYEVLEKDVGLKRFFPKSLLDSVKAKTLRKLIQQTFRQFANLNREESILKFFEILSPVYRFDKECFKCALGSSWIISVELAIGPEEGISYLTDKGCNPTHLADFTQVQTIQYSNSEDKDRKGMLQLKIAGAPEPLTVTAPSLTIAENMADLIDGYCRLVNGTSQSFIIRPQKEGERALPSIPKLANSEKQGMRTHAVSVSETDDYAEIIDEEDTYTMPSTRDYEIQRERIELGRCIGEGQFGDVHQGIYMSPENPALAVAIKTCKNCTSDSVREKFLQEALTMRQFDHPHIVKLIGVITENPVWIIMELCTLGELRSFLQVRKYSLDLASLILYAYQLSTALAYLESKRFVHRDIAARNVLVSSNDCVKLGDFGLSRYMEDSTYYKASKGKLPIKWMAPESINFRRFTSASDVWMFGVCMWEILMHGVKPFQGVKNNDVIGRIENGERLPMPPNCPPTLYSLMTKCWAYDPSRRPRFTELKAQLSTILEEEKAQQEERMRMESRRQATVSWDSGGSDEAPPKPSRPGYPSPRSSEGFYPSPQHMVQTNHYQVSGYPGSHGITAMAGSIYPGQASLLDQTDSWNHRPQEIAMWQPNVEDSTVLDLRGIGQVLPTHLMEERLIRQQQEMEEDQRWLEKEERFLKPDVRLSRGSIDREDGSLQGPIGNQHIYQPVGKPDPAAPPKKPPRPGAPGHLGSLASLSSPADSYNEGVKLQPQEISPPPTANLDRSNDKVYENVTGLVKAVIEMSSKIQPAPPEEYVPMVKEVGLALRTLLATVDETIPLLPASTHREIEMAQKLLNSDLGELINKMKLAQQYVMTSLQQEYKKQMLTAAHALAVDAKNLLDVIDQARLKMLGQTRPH
Protocol: as §1

[30] = biological target: T30, RIOK2 (Homo sapiens, UniProt Q9BVS4); test: KINOMEscan competition binding assay; details: LL6 at 10 μM; read-out: Percent Control
T30 construct: purchased DiscoverX KINOMEscan
Protocol: as §1

[31] = biological target: T31, CSNK1G2 (Homo sapiens, UniProt P78368); test: KINOMEscan competition binding assay; details: LL6 at 10 μM; read-out: Percent Control
T31 construct: purchased DiscoverX KINOMEscan
Protocol: as §1

[32] = biological target: T32, CDK2 (Homo sapiens, UniProt P24941); test: KINOMEscan competition binding assay; details: LL6 at 10 μM; read-out: Percent Control
T32 construct: purchased DiscoverX KINOMEscan
Protocol: as §1

[33] = biological target: T33, PDGFRB (Homo sapiens, UniProt P09619); test: KINOMEscan competition binding assay
T33 construct: purchased DiscoverX KINOMEscan
T33 sequence (P09619 33-1106): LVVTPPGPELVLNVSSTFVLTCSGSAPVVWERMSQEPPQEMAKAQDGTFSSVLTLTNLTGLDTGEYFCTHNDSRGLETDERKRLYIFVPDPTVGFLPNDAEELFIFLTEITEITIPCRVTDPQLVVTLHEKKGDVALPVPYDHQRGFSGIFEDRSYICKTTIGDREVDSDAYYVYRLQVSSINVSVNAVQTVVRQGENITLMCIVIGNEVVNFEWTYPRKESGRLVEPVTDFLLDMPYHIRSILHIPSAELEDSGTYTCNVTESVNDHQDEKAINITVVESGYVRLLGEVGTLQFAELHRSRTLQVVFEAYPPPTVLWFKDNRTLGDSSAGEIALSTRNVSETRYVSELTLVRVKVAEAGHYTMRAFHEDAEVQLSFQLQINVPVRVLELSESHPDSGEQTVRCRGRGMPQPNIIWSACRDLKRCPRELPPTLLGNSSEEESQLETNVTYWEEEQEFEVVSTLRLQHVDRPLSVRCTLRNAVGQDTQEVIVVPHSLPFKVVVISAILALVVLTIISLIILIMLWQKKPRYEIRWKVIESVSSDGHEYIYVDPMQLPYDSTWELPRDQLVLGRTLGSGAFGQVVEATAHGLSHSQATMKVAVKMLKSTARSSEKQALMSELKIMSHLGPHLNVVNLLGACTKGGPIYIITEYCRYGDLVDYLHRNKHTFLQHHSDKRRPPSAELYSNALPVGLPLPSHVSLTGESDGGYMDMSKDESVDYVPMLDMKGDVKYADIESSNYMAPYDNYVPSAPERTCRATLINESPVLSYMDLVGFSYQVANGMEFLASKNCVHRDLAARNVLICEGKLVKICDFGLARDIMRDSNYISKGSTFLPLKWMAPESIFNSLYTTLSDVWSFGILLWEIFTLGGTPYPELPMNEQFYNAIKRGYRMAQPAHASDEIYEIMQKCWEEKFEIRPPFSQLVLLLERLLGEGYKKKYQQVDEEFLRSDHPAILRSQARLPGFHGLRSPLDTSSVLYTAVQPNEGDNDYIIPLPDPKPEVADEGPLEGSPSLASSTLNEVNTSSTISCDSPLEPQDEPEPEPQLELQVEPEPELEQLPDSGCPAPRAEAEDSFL
Protocol: as §1

[34] = biological target: T34, MEK1 (Homo sapiens, UniProt Q02750); test: KINOMEscan competition binding assay; details: LL6 at 10 μM; read-out: Percent Control
T34 construct: purchased DiscoverX KINOMEscan
Protocol: as §1

[35] = test system: AXL; test: Western blot, phosphorylation of AXL in H1944 and A549 cells; type: cell-based, human; details: 2.5 μM
Protocol: Before harvesting, the cells were stimulated with 10% FBS for 20 min. Total cell lysates were prepared with modified radioimmunoprecipitation assay lysis buffer (50 mM Tris-HCl [pH 7.4], 150 mM NaCl, 1 mM EDTA, 0.25% sodium deoxycholate, 1% Triton X-100, 100 mM NaF, 5 mM Na3VO4, 1 mM PMSF, 1 μg/mL aprotinin, 1 μg/mL leupeptin, and 1 μg/mL pepstatin). Equal amounts of protein (20 μg) were subjected to 8% SDS-PAGE and electrically transferred onto polyvinylidene difluoride membranes (Bio-Rad Laboratories, Hercules, CA, USA). Membranes were blocked with blocking buffer (3% BSA in Tris-buffered saline containing 0.1% Tween-20 [TBST]) for 1 h at room temperature. The membranes were incubated with primary antibodies diluted in 3% BSA in TBST (1:1,000) overnight at 4 °C, washed multiple times with TBST, and incubated with secondary antibodies diluted in 3% nonfat dry milk in TBST (1:5,000) for 1 h at room temperature. The membranes were washed multiple times with TBST and visualized using an enhanced chemiluminescence detection kit (Thermo Fisher Scientific). Densitometric analysis was performed using ImageJ software.

[36] = LL6 at 10 μM, read-out: Percent Control

## Nc1ncnc2c1c(-c1ccc(Cl)cc1)nn2CCn1cc(COc2ccc(Nc3nccc(Nc4cnc5ccccc5c4)n3)cc2)nn1 [LL6]
[1]
  remaining binding at 10 µM: 100%
[2]
  remaining binding at 10 µM: 100%
[3]
  remaining binding at 10 µM: 100%
[4]
  remaining binding at 10 µM: 55%
[5]
  remaining binding at 10 µM: 46%
[6]
  remaining binding at 10 µM: 100%
[7]
  remaining binding at 10 µM: 100%
[8]
  remaining binding at 10 µM: 75%
[9]
  remaining binding at 10 µM: 75%
[10]
  remaining binding at 10 µM: 45%
[11]
  remaining binding at 10 µM: 87%
[12]
  remaining binding at 10 µM: 96%
[13]
  remaining binding at 10 µM: 100%
[14]
  remaining binding at 10 µM: 62%
[15]
  remaining binding at 10 µM: 100%
[16]; IR, 11-point dose response, duplicate
  Kd: not accurately measurable
[16]; IR, LL6 at 10 µM
  inhibition at 10 µM: > 65%
[16]; [36]
  remaining binding at 10 µM: 35%
[17]
  remaining binding at 10 µM: 42%
[18]
  remaining binding at 10 µM: 95%
[19]
  remaining binding at 10 µM: 97%
[20]
  remaining binding at 10 µM: 67%
[21]
  remaining binding at 10 µM: 100%
[22]
  remaining binding at 10 µM: 75%
[23]
  remaining binding at 10 µM: 90%
[24]
  remaining binding at 10 µM: 40%
[25]
  remaining binding at 10 µM: 43%
[26]
  remaining binding at 10 µM: 89%
[27]
  remaining binding at 10 µM: 100%
[28]
  remaining binding at 10 µM: 100%
[29]
  remaining binding at 10 µM: 73%
[30]
  remaining binding at 10 µM: 100%
[31]
  remaining binding at 10 µM: 63%
[32]
  remaining binding at 10 µM: 99%
[33]; [36]
  remaining binding at 10 µM: 5%
[33]; PDGFRB, LL6 at 10 µM
  inhibition at 10 µM: > 65%
[34]
  remaining binding at 10 µM: 65%
[35]
  activation (phosphorylation) of AXL: efficiently suppressed
